The text below walks through data of patent US20190169134A1, “NOVEL CLASS OF QUINOLONE HETEROCYCLIC AROMATIC MOLECULES FOR CANCER TREATMENT” (RenoTarget Therapeutics, Inc., priority 2016, published 2019).

The target of assay [1] is T1, AKT2 (Homo sapiens, UniProt P31751).
T1 construct: made in house; host or cells: cell-free system (rabbit reticulocyte lysate)
Briefly: KinaseSeeker competition binding assay. The method, then:
(§1) Compound Reno647 was profiled against the following panel of kinases at 2 μM using the KinaseSeeker™ assay: ABL1, AKT1, AKT2, AKT3, ALK, AURKA, AXL, BRAF, BTK, CDK2, CDK5, CDK7, CDK8, CSF1R, DDR1, EGFR del L747-P753 InsS, EGFR (L861Q), EGFR (G719S), EGFR, EGFR (L858R), EPHA2, EPHB2, FGFR3, FLT1/VEGFR1, FLT2/FGFR1, FLT3, FLT4/VEGFR3, GSK-3a, HER2, IGF1R, INSR, KIT, LIMK1, MET, MLK2/MAP3K10, RPS6KA5/MSK1, MUSK, p38a/MAPK12, PDGFRA, PDGFRB, PDK1, RET, RIPK2, RPS6KA1/RSK1, SRC, TEC, TESK1, TRKB, VEGFR2, and YES 1.
(§2) KinaseSeeker is a homogeneous competition binding assay where the displacement of an active site dependent probe by an inhibitor is measured by a change in luminescence signal (see FIG. 7). Luminescence readout translates into a highly sensitive and robust assay with low background and minimal interference from test compounds.
(§3) (Jester, Cox et al. 2010; Jester, Gaj et al. 2012): 10 mM stock of compound Reno647 was diluted in DMSO to a concentration of 50 μM. Prior to initiating a profiling campaign, the compound was evaluated for false positive against split-luciferase. The compound was then screened in duplicate against each of the kinases. For kinase assays, each Cfluc-Kinase was translated along with Fos-Nfluc using a cell-free system (rabbit reticulocyte lysate) at 30° C. for 90 min. A 24 μL aliquot of this lysate containing either 1 μL of DMSO (for no-inhibitor control) or compound solution in DMSO (2 LM final concentration) was incubated for 30 minutes at room temperature followed by 1 hour in the presence of a kinase specific probe. A 80 μL of luciferin assay reagent was added to each solution and luminescence was immediately measured on a luminometer.
(§4) The % Inhibition and % Activity Remaining were calculated using the following equations:
(§5) % inhibition=(ALUcontrol−ALUsample)×100
(§6) % activity=100−% inhibition.

In assay [2] the target is T2, AKT3 (Homo sapiens, UniProt Q9Y243).
T2 construct: made in house; host or cells: cell-free system (rabbit reticulocyte lysate)
Description: KinaseSeeker competition binding assay. As for the experimental part: as §1, §2, §3, §4, §5, §6

In assay [3] the target is T3, AURKA (Homo sapiens, UniProt O14965).
T3 construct: made in house; host or cells: cell-free system (rabbit reticulocyte lysate)
Briefly: KinaseSeeker competition binding assay. The method, then:
as §1, §2, §3, §4, §5, §6

For assay [4], the target named is T4, BTK (Homo sapiens, UniProt Q06187).
T4 construct: made in house; host or cells: cell-free system (rabbit reticulocyte lysate)
Briefly: KinaseSeeker competition binding assay. As for the experimental part: as §1, §2, §3, §4, §5, §6

Assay [5] concerns the target T5, EPHA2 (Homo sapiens, UniProt P29317).
T5 construct: made in house; host or cells: cell-free system (rabbit reticulocyte lysate)
Briefly: KinaseSeeker competition binding assay. As for the experimental part: as §1, §2, §3, §4, §5, §6

The target of assay [6] is T6, EPHB2 (Homo sapiens, UniProt P29323).
T6 construct: made in house; host or cells: cell-free system (rabbit reticulocyte lysate)
Description: KinaseSeeker competition binding assay. The method, then:
as §1, §2, §3, §4, §5, §6

The target of assay [7] is T7, FGFR3 (Homo sapiens, UniProt P22607).
T7 construct: made in house; host or cells: cell-free system (rabbit reticulocyte lysate)
Briefly: KinaseSeeker competition binding assay. As for the experimental part:
as §1, §2, §3, §4, §5, §6

For assay [8], the target named is T8, FLT2 (Homo sapiens, UniProt P11362).
T8 construct: made in house; host or cells: cell-free system (rabbit reticulocyte lysate)
Briefly: KinaseSeeker competition binding assay. As for the experimental part:
as §1, §2, §3, §4, §5, §6

For assay [9], the target named is T9, FLT4 (Homo sapiens, UniProt P35916).
T9 construct: made in house; host or cells: cell-free, rabbit reticulocyte lysate
Briefly: KinaseSeeker competition binding assay. The method, then: as §1, §2, §3, §4, §5, §6

In assay [10] the target is T10, HER2 (Homo sapiens, UniProt P04626).
T10 construct: made in house; host or cells: cell-free, rabbit reticulocyte lysate
Description: KinaseSeeker competition binding assay. The method, then:
as §1, §2, §3, §4, §5, §6

Assay [11] addresses T11, IGF1R (Homo sapiens, UniProt P08069).
T11 construct: made in house; host or cells: cell-free, rabbit reticulocyte lysate
Briefly: KinaseSeeker competition binding assay. As for the experimental part:
as §1, §2, §3, §4, §5, §6

The target of assay [12] is T12, MET (Homo sapiens, UniProt P08581).
T12 construct: made in house; host or cells: cell-free, rabbit reticulocyte lysate
Briefly: KinaseSeeker competition binding assay. As for the experimental part: as §1, §2, §3, §4, §5, §6

For assay [13], the target named is T13, MSK1 (Homo sapiens, UniProt O75582).
T13 construct: made in house; host or cells: cell-free, rabbit reticulocyte lysate
Description: KinaseSeeker competition binding assay. As for the experimental part:
as §1, §2, §3, §4, §5, §6

Assay [14] has as its target T14, RET (Homo sapiens, UniProt P07949).
T14 construct: made in house; host or cells: cell-free, rabbit reticulocyte lysate
Briefly: KinaseSeeker competition binding assay. The method, then:
as §1, §2, §3, §4, §5, §6

In assay [15] the target is T15, RIPK2 (Homo sapiens, UniProt O43353).
T15 construct: made in house; host or cells: cell-free, rabbit reticulocyte lysate
Briefly: KinaseSeeker competition binding assay. The method, then: as §1, §2, §3, §4, §5, §6

The target of assay [16] is T16, RSK1 (Homo sapiens, UniProt Q15418).
T16 construct: made in house; host or cells: cell-free, rabbit reticulocyte lysate
Description: KinaseSeeker competition binding assay. The method, then:
as §1, §2, §3, §4, §5, §6

Assay [17] has as its target T17, TESK1 (Homo sapiens, UniProt Q15569).
T17 construct: made in house; host or cells: cell-free, rabbit reticulocyte lysate
Briefly: KinaseSeeker competition binding assay. The method, then:
as §1, §2, §3, §4, §5, §6

Assay [18] has as its target T18, VEGFR2 (Homo sapiens, UniProt P35968).
T18 construct: made in house; host or cells: cell-free, rabbit reticulocyte lysate
Description: KinaseSeeker competition binding assay. The method, then: as §1, §2, §3, §4, §5, §6

Assay [19] addresses T19, YES1 (Homo sapiens, UniProt P07947).
T19 construct: made in house; host or cells: cell-free, rabbit reticulocyte lysate
Description: KinaseSeeker competition binding assay. The method, then:
as §1, §2, §3, §4, §5, §6

Assay [20] relates to HCC827 P and HCC827 TR cells. Briefly: Reno647/Carboplatin combination, median effects (SRB, CalcuSyn). Type of assay: cell-based, human. The method, then:
As described in Example 2.1. Two cell lines, HCC827-P and HCC827-TR (Tarceva-resistant HCC727 cells-an EGFRi resistant cell line with MET amplification) (Wang, Pursell et al. 2013) were used in the combination study. Exponentially growing HC[…] and HCC827-TR cells were seeded into 96-wells dishes at density of 3,000 cells per well. Twenty-four hours later, the cells were exposed concurrently to serial dilution of Reno647 or Carboplatin or Camptothecin alone or in combination at a ratio of 1:50 with Carboplatin or at ratio 1:1 with Camptothecin for 3 days. Reno647 were concurrently and sequentially with paclitaxel (Taxol) at ratio of 200:1 for 6 days. For sequential exposure, the cells were treated with Reno647 for 3 days, after removal of the drug containing medium, the cells were treated with Taxol for additional 3 days, or the cells were treated by Taxol first followed by the treatment with Reno 647. After incubation for 6 days, the cell growth was measured by SRB as described previously in Example 2.1 section, and the percentages of inhibition (1-T/C) % were calculated, and data were analyzed by a PC program, CalcuSyn, Biosoft (edited by T.-C. Chou, Memorial Sloan-Kettering Cancer Center, New York, and M. P. Hayball, at Cambridge, UK, 1996). The computer-calculated combination index (CI) was used to judge the outcomes of a combination: […] It has long been accepted that chemotherapy provided some benefit for patients with non-small-cell lung cancer (NSCLC) in terms of quality of life and symptomatology as well as modest improvements in survival. […] Cell growth was determined by SRB as described above.

T14 sequence (P07949 29-1114): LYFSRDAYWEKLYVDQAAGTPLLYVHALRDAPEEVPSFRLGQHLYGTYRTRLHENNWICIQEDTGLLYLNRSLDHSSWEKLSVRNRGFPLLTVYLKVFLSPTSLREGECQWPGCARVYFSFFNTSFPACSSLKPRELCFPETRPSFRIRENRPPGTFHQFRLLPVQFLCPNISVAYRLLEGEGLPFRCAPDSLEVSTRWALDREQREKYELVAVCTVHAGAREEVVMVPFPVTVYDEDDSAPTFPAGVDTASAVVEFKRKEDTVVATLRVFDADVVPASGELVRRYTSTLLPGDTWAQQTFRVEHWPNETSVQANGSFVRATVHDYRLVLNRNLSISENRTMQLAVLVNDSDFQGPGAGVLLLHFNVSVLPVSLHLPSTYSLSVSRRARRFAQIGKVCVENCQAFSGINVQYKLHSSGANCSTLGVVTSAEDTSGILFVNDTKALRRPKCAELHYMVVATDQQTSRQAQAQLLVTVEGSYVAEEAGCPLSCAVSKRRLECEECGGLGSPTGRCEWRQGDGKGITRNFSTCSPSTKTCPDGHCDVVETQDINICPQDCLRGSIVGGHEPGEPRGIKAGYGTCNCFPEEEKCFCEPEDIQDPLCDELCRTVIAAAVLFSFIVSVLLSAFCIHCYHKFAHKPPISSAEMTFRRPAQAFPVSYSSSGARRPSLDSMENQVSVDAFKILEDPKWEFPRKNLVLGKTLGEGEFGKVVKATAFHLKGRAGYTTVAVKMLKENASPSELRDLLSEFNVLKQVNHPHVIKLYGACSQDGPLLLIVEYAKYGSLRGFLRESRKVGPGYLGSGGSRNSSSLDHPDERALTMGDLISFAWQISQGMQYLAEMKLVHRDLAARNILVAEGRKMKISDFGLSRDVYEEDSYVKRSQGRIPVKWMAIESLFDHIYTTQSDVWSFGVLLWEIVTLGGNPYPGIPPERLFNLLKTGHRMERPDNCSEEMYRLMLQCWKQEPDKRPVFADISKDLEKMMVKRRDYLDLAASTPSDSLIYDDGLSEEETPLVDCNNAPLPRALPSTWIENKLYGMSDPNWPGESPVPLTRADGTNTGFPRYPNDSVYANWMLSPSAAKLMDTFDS
T1 sequence (P31751 whole entry): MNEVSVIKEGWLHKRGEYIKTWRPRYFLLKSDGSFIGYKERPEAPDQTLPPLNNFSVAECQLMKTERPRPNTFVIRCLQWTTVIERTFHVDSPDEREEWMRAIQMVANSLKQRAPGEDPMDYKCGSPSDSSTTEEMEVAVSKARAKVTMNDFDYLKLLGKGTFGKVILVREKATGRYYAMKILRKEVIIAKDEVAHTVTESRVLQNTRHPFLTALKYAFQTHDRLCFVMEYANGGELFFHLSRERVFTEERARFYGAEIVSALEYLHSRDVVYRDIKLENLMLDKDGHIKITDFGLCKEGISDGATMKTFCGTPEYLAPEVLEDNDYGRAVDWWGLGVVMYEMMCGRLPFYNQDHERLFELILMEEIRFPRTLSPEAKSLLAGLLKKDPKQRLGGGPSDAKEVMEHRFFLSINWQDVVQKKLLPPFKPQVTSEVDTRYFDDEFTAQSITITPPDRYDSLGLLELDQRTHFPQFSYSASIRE
T3 sequence (O14965 whole entry): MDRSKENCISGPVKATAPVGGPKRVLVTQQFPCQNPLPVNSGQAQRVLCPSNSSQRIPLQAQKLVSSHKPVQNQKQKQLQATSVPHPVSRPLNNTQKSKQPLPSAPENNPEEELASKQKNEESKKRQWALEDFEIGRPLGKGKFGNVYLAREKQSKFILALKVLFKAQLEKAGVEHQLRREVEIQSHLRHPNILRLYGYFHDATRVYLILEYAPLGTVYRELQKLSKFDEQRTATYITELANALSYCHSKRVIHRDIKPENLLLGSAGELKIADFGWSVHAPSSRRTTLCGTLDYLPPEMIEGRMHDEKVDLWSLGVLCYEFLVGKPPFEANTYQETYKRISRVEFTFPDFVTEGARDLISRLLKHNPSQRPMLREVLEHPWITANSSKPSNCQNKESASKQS
T7 sequence (P22607 23-806): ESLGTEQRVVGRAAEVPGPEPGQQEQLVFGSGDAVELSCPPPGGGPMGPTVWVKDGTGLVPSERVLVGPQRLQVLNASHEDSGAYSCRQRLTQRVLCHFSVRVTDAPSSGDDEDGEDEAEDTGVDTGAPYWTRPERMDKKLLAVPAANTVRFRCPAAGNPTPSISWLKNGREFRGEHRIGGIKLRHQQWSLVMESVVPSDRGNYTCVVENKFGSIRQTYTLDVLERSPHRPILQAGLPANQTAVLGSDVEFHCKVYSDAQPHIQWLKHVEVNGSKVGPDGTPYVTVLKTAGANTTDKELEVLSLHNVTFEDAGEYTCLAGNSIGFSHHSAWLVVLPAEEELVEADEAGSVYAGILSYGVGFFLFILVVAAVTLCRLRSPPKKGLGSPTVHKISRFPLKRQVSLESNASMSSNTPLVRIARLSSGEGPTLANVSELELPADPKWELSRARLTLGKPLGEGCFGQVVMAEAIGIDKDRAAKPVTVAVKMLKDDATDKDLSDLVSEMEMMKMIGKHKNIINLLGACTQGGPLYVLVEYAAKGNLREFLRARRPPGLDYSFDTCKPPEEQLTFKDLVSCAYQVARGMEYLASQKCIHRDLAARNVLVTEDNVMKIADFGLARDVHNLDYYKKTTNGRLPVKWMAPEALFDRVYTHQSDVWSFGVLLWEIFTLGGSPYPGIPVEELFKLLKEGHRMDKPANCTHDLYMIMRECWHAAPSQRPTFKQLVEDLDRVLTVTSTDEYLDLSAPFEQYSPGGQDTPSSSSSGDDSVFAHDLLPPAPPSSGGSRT
T4 sequence (Q06187 whole entry): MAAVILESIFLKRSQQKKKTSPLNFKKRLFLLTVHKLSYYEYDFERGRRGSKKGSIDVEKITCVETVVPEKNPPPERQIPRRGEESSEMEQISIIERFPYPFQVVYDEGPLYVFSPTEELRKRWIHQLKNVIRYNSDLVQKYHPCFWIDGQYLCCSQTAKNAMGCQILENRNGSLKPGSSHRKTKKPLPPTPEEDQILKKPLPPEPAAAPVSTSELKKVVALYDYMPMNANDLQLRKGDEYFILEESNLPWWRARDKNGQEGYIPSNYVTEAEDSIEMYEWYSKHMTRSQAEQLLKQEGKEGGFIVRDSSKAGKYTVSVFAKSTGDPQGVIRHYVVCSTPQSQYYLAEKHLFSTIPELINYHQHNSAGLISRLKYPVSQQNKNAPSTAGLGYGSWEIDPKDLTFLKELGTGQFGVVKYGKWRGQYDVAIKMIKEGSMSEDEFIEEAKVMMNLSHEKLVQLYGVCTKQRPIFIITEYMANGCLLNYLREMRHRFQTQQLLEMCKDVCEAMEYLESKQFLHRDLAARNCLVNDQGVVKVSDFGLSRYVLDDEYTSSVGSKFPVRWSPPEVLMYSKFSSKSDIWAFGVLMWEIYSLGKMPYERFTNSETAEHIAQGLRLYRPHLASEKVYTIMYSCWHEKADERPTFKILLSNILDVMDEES
T12 sequence (P08581 25-1390): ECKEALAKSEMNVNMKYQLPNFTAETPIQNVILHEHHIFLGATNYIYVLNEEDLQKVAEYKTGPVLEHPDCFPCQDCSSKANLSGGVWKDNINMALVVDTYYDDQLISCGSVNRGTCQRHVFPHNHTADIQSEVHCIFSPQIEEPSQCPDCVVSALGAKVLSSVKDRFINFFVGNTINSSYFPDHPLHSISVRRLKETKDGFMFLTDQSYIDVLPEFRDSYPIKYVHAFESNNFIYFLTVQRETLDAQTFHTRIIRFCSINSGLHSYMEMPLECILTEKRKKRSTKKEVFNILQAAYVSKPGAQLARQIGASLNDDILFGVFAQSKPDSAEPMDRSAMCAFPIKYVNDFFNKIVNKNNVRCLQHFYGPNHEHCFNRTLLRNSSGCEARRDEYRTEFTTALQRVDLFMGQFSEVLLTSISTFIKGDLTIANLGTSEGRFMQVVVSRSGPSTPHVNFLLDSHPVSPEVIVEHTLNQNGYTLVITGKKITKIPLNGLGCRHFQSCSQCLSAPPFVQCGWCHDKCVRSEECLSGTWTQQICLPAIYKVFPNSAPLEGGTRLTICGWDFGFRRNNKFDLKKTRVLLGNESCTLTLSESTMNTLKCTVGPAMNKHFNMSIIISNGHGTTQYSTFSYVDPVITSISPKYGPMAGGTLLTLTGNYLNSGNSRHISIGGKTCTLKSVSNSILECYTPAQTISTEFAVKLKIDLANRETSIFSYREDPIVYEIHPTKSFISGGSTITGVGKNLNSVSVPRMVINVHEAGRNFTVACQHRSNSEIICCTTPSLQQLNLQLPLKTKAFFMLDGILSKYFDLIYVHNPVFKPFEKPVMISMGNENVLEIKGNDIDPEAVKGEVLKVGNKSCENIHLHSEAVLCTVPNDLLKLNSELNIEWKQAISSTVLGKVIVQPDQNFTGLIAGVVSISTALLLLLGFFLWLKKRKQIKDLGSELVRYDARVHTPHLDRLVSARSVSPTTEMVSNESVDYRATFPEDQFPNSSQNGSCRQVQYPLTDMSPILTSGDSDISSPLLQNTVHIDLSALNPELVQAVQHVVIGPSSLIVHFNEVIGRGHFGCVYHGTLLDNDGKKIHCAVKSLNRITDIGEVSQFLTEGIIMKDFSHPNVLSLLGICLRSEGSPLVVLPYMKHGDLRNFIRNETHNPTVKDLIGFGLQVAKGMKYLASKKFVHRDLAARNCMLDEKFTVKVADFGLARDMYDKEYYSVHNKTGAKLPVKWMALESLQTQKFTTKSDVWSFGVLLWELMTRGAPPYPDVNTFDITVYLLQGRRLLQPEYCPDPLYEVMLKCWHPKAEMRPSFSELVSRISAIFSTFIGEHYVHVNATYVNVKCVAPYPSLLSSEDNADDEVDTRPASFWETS

Regarding `C#Cc1cccc(Nc2ncnc3cc(OCCOC)c(NC(=O)c4ccc(F)c([N+](=O)[O-])c4)cc23)c1` [Reno647, 4-Fluoro-N-[4-(3-ethynyl-phenylamino)-7-(2-methoxy-ethoxy)-quinazolin-6-yl]-3-nitro-benzamide], the remaining binding at 2 µM in assay [1] was determined as 100%; in assay [2] it was 100%; in assay [3], 100%; in [4], 93.1%; in assay [5] it was 100%; in assay [6], 100%. Moreover, the remaining binding at 2 µM stood at 98.9% in [7]; 51.7% in [8]; 79.8% in assay [9]; 100% in assay [10]; 95.5% in [11]; 100% in assay [12]. The remaining binding at 2 µM in assay [13] was 100%; in assay [14], 100%; in assay [15] it was ~41%; in assay [16], 100%; in [17] it was 100%; in assay [18], 92.8%. The same molecule displayed a remaining binding at 2 µM in assay [19] of 87.1%. The “dose reduction in combination” value in assay [20] (Reno647:Carboplatin 1:50) is recorded as > 10 fold. The “median effects, two drugs combined” value in assay [20] (Reno647:Carboplatin 1:50, concurrent, cell line not stated) was 0.067 µM. Moreover, the “median effects, drug alone” value in assay [20] (single agent, cell line not stated) was 0.697 µM.
